From US20260184689A1, “PIPERIDINE-SUBSTITUTED BENZOIC ACID COMPOUND, AND PHARMACEUTICAL COMPOSITION AND USE THEREOF” (SHANGHAI YISHENG BIOPHARMACEUTICAL COMPANY LIMITED, priority 2022, published 2026) come the findings set out here.

Assay [1] has as its target T1, Complement factor B (Homo sapiens, UniProt P00751). In words: Human complement factor B ELISA assay (CVF-Bb, complement C3 protein). The arrangement: followed by the addition of 0.2 μL of CVF-Bb (0.1 μmol/mL). Conditions: CVF-Bb incubated with compound 1 hour, then complement C3 protein 37° C. 2 hours, OD 450 nm. Type of assay: biochemical. How it is done: The mixture was incubated at room temperature for 1 hour;
Then, 9 μL of the successfully incubated samples were taken and added to the wells of the 96T plate, followed by the addition of 1 μL complement C3 protein, and the reaction was carried out at a constant temperature of 37° C. for 2 hours;
The 9 μL of the aforementioned sample-free liquid was mixed with 1 μL of complement C3 protein as the negative control; • 10 μL of the successfully incubated sample was taken, and the inhibitory concentration was determined by ELISA. The OD value at 450 nm was measured, and a curve was plotted. The obtained data were analyzed using GraphPad Prism 7.0 software, and a Log concentration-inhibition rate curve was generated using a nonlinear regression model to calculate the IC50 value.
Target sequence in this assay (P00751 260-764 limits assumed): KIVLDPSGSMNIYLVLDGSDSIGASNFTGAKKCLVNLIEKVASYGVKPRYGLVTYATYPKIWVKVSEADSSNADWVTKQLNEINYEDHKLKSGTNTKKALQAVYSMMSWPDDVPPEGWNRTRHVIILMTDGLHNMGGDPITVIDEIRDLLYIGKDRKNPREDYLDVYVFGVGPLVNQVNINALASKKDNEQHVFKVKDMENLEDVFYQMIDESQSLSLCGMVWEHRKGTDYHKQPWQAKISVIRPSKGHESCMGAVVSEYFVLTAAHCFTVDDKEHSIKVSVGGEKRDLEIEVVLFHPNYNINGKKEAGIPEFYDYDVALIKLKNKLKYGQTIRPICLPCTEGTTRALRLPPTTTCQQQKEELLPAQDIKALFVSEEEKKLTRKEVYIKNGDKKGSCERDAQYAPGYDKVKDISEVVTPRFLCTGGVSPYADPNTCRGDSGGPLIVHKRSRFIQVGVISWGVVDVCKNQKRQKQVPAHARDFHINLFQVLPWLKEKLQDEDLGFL
Target sequence in this assay (Q91132 23-649 partner limits assumed): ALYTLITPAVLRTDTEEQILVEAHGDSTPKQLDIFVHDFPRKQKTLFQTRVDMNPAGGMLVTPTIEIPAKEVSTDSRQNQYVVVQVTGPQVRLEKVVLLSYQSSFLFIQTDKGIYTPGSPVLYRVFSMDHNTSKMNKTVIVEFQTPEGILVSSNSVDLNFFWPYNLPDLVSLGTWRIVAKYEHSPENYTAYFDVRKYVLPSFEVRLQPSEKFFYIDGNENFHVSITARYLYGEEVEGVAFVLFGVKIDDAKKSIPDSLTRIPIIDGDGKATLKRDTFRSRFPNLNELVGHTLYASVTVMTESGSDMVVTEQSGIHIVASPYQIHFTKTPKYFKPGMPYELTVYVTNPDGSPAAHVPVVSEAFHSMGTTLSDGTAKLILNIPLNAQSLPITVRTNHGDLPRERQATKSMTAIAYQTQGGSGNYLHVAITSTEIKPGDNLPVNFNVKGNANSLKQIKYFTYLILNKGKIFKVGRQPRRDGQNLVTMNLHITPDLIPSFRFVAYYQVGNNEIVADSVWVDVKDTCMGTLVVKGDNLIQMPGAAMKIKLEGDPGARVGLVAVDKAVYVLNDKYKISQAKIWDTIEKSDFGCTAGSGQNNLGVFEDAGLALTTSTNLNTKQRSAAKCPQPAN
Target sequence in this assay (Q91132 733-984 partner limits assumed): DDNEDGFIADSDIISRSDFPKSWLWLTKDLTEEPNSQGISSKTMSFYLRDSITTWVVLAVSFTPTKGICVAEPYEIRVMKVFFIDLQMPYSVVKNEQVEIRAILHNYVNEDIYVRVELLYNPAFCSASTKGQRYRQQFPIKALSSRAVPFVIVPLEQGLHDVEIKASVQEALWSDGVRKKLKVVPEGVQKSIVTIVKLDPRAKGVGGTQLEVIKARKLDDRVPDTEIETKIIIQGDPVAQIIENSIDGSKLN
Target sequence in this assay (Q91132 1264-1642 partner limits assumed): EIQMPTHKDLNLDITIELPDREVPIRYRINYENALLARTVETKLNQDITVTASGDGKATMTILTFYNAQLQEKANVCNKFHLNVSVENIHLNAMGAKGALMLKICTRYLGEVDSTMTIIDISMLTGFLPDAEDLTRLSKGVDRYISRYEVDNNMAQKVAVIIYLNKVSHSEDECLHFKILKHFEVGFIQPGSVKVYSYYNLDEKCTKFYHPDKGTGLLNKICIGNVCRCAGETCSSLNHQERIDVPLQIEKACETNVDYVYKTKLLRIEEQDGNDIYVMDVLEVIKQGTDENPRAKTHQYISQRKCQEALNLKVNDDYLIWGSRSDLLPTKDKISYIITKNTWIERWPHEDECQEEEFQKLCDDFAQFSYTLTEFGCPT

Assay [2] has as its target T1, Complement factor B. As to the kind of experiment: Optical surface plasmon resonance (SPR) binding affinity assay. (Surface plasmon resonance follows binding to a sensor surface in real time, without labels.)
Target sequence in this assay (P00751 26-764): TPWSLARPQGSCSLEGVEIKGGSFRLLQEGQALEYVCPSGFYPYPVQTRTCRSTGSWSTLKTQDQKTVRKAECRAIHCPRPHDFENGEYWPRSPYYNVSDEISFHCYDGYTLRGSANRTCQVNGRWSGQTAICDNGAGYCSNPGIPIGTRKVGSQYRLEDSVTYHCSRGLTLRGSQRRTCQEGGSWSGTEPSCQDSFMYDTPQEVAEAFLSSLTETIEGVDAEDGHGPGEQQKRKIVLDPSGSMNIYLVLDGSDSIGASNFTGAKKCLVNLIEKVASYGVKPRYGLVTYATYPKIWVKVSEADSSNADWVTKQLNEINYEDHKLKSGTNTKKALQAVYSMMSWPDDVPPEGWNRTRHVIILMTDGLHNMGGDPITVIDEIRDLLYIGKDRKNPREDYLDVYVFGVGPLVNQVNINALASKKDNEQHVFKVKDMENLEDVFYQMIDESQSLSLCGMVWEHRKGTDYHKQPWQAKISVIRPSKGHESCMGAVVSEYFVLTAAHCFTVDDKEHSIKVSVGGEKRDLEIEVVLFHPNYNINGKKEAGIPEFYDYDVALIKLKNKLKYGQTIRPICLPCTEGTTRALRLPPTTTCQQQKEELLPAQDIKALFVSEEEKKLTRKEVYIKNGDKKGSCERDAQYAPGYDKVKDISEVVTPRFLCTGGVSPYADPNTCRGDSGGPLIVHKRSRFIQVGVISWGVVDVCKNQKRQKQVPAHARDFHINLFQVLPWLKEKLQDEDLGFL
Method: The SPR experiment was conducted at 25° C. using PBS buffer supplemented with 0.05% (v/v) P20 and 5% DMSO as the running buffer. The Biacore 8K instrument from GE Healthcare was employed for analysis. The CM3 chip (GE Healthcare) was activated with 400 mM EDC and 100 mM NHS at a flow rate of 30 μL/min for 420 s.
The subject of the next assay is PNH-like erythrocytes. In words: Alternative pathway inhibition assay of PNH-like erythrocyte. Type of assay: cell-based. Conditions: 1 h, AET/anti-CD55 sensitized human erythrocytes, acidified normal human serum pH 6.4, 37° C. 60 min. The text has this:
Principle: PNH, as an indication for complement inhibitors, was typically tested using the Ham test, which states that acidified serum was capable of activating the alternative pathway, leading to hemolysis of PNH erythrocytes, while normal erythrocytes remained unaffected. It was reported in the literature that AET could disrupt the complement regulatory proteins on the surface of normal human erythrocytes, resulting in PNH-like erythrocytes.
Reagents and instrument: PBS buffer, normal human serum (NHS), Alsever's solution, microplate reader, MgCl2, EGTA, EDTA, HCl, normal human erythrocytes, AET; anti-CD-55 antibody (BRIC216; Sigma)
PBS buffer: Potassium dihydrogen phosphate (KH2PO4): 0.24 g/L, disodium hydrogen phosphate (Na2HPO4): 1.44 g/L, sodium chloride (NaCl): 8 g/L, potassium chloride (KCl): 0.2 g/L, pH 7.4
PBSE buffer: PBS, 10 mM EDTA; pH 7.4
PBSMg buffer: PBS, 1 mM Mg++; pH 6.4
10× Mg-EGTA stock solution: 25 mM MgCl2, 80 mM EGTA; pH 6.4
10× EDTA stock solution: 100 mM EDTA; pH 6.4
Method: The inhibition of alternative pathway-mediated erythrocyte lysis was evaluated using an in vitro model of PNH. Normal human erythrocytes were sensitized with 2-aminoethylisothiouronium bromide (AET) to inactivate complement regulatory proteins on the cell surface and induce a PNH-like phenotype.
2 mL of normal human erythrocytes were mixed with 2 mL of Alsever's solution, washed three times with PBS, and centrifuged at 2500×g, with the upper 10% of the erythrocytes being removed each time. The washed 1 mL erythrocytes were sensitized by incubation with 4 mL of 8% w/v AET (pH 8.0) at 37° C. for 10 min, followed by three additional washes with PBS. Subsequently, the concentration of erythrocytes in PBS (erythrocyte stock solution) was adjusted with PBS such that an absorbance of 1.5-2.0 at 412 nm (indicating hemoglobin release) was achieved upon dilution of 10 μL erythrocyte stock solution with 190 μL water.
1.5 mL of the erythrocyte stock solution was mixed with anti-CD55 antibody (BRIC216; Sigma/final concentration of 6.7 μg/mL) and incubated on ice for 30 min. After being washed once with PBS, the treated erythrocytes were resuspended in PBS-Mg to the initial volume of 1.5 mL. The following AP-mediated lysis assay was performed on this erythrocyte preparation with induced PNH phenotype.
The normal human serum was acidified with 0.2 M HCl to pH 6.4, and supplemented with MgCl2 and EGTA to final concentrations of 2.5 and 8 mM, respectively. 80 μL of this serum mixture was mixed with 10 μL of PBS-Mg (negative blank) or 10 μL of samples at various concentrations. Normal human serum was acidified with 0.2 M HCl to pH 6.4, supplemented with EDTA to a final concentration of 10 mM, and 80 μL of this serum mixture was mixed with 10 μL of PBS-Mg (negative blank) as a blank positive control. The sample was incubated with serum on ice for 5 min, and then 10 μL of sensitized erythrocytes were added. The final serum concentration in the reaction mixture was approximately 64% v/v, incubated at 37° C. for 60 min, and the reaction was quenched by adding 50 μL of ice-cold PBS containing 10 mM EDTA. The remaining unlysed cells were centrifuged at 2500×g for 10 min, and 100 μL of the supernatant was transferred to a 96-well plate to measure its absorbance at 412 nm. The amount of hemoglobin released during erythrocyte lysis was thereby quantified. […] represented the relative lysis of PNH-like erythrocytes (expressed in %; set to 0% for the PC sample and 100% for the NC sample). The absorbance was measured using a microplate reader (Molecular Devices SpectraMax 3X). The IC50 value was calculated by applying nonlinear regression with GraphPad Prism 9.0 software from the percentage of hemolysis as a function of the test compound concentration.

Regarding `COc1cc(C)c2[nH]ccc2c1C(=O)N1CCC(O)(C2CCC2)C[C@H]1c1ccc(C(=O)O)cc1` (mixture of isomers) [Final product of Example 154, 4-((2S)-4-Cyclobutyl-4-hydroxy-1-(5-methoxy-7-methyl-1H-indole-4-carbonyl)piperidin-2-yl)benzoic acid], the IC50 fell in the range of 400 to 450 nM at Complement factor B [1] and 4000 to 4500 nM in the assay on PNH-like erythrocytes. The compound further gave a Kd at Complement factor B [2] of 10 to 30 nM.

For `CCO[C@H]1CCN(C(=O)c2c(OC)cc(C)c3[nH]ccc23)[C@H](c2ccc(C(=O)O)cc2)C1` [Compound 1 of Example 55, 4-((2S,4S)-4-Ethoxy-1-(5-methoxy-7-methyl-1H-indole-4-carbonyl)piperidin-2-yl)benzoic acid], the IC50 is 150 to 300 nM on Complement factor B [1] and 1000 to 1500 nM with PNH-like erythrocytes. Besides, the Kd at Complement factor B [2] lay within 10 to 30 nM.

Consider `CCO[C@H]1CCN(S(=O)(=O)c2c(OC)cc(C)c3[nH]ccc23)[C@H](c2ccc(C(=O)O)cc2)C1` [Compound 51 of Example 144, 4-((2S,4S)-4-Ethoxy-1-((5-methoxy-7-methyl-1H-indol-4-yl)sulfonyl)piperidin-2-yl)benzoic acid], for which the IC50 fell in the range of 300 to 500 nM on Complement factor B [1] and 2000 to 2500 nM with PNH-like erythrocytes. The compound also gave a Kd at Complement factor B [2] of 10 to 30 nM.

Regarding `COc1cc(C)c2[nH]ccc2c1C(=O)N1CC[C@H](OCC2CC2)C[C@H]1c1ccc(C(=O)O)cc1` [Compound 9 of Example 71, 4-((2S,4S)-4-(Cyclopropylmethoxy)-1-(5-methoxy-7-methyl-1H-indole-4-carbonyl)piperidin-2-yl)benzoic acid], the Kd at Complement factor B [2] fell in the range of 10 to 30 nM. Also, in the assay with PNH-like erythrocytes, the IC50 lay in the range of 6000 to 6500 nM.

Regarding `COc1cc(C)c2[nH]ccc2c1C(=O)N1CC[C@H](OC2CCC2)C[C@H]1c1ccc(C(=O)O)cc1` [Final product of Example 157, 4-((2S,4S)-4-Cyclobutoxy-1-(5-methoxy-7-methyl-1H-indole-4-carbonyl)piperidin-2-yl)benzoic acid], the IC50 lay within 400 to 450 nM at Complement factor B [1] and 4000 to 4500 nM in the assay on PNH-like erythrocytes. The Kd on Complement factor B [2] was in the range of 10 to 30 nM.

On to `COc1cc(C)c2[nH]ccc2c1C(=O)N1CC[C@H](OC)C[C@H]1c1ccc(C(=O)O)cc1` [Final product of Example 156, 4-((2S,4S)-4-Methoxy-1-(5-methoxy-7-methyl-1H-indole-4-carbonyl)piperidin-2-yl)benzoic acid], for which the IC50 on Complement factor B [1] is 150 to 300 nM; in the assay with PNH-like erythrocytes it was 1000 to 1500 nM. This compound yielded a dissociation constant (Kd) at Complement factor B [2] of 10 to 30 nM.

As to `COc1cc(C)c2[nH]ccc2c1C(=O)N1CCC(O)(C2CC2)C[C@H]1c1ccc(C(=O)O)cc1` (stereo partly drawn) [Final product of Example 155, 4-((2S)-4-Cyclopropyl-4-hydroxy-1-(5-methoxy-7-methyl-1H-indole-4-carbonyl)piperidin-2-yl)benzoic Acid], the IC50 on Complement factor B [1] was 150 to 300 nM; in the assay with PNH-like erythrocytes, 1000 to 1500 nM. This compound registered a Kd at Complement factor B [2] of 10 to 30 nM.

As for `CCO[C@H]1CCN(Cc2c(OC)cc(C)c3[nH]ccc23)[C@H](c2ccc(C(=O)O)cc2)C1` [LNP023, reference compound], the IC50 with PNH-like erythrocytes is 224 nM.

The IC50 is the point on the concentration scale where inhibition reaches its midpoint. As usually defined, the Kd is the constant that tells how readily two partners part at equilibrium.
